# Earlier results in patent US20210121562A1, “PHARMACEUTICAL COMPOSITION FOR TREATMENT AND/OR PREVENTION OF CANCER” (TORAY INDUSTRIES, INC., priority 2018, published 2021).
# Tests used:
# [1] = tested on: extramammary Paget's disease; settings: supportive care for extramammary Paget's disease
# [2] = tested on: basal cell cancer; settings: basal cell cancer in patients having histories of rituximab administration for non-Hodgkin lymphoma
compound,measurement,setting,value
"CC(C)Cn1cnc2c(N)nc3ccccc3c21 [imiquimod, 4-amino-1-(2-methylpropyl)-1H-imidazo[4,5-c]quinoline]",cases completely responded,[1],7 out of 9
same,antitumor effect of imiquimod,[2],attenuated
